Here are results for two molecules from patent US11160793B2, “Solid dosage forms of bendamustine” (Astellas Deutschland GmbH, priority 2008, dated 2021).

Series [1] can be described thus: Stability of aqueous solution of bendamustine as a function of pH (hydrolysis). Type of series: physicochemical.
The conditions of series [2]: 4.2-5.5 mg/kg, 7 patients, cited from earlier work.
The conditions of series [3]: B6D2F1-mice, absorption from the gastro-intestinal tract; cited from earlier work.

Where a name gives a salt, the structure may show the parent alone.

On to `Cn1c(CCCC(=O)O)nc2cc(N(CCCl)CCCl)ccc21` [bendamustine, 4-[5-[bis(2-chloroethyl)amino]-1-methylbenzimidazo-2-yl]butanoic acid], for which the “pH above which significant hydrolytic decomposition is observed” value in series [1] is reported as “higher than 5”.
In the case of `Cn1c(CCCC(=O)O)nc2cc(N(CCCl)CCCl)ccc21` [bendamustine hydrochloride], in series [2] (25 mg capsules vs intravenous), the mean oral bioavailability is 57%. In addition, in series [2] (25 mg capsules), the “time to maximal plasma levels after oral administration” value was not above 1 h. Also, the bio-availability result in series [3] is recorded as “about 40%”.
